The text below walks through data of patent publication US4705799A, “Aminomethyl oxooxazolidinyl benzenes useful as antibacterial agents” (E. I. Du Pont de Nemours and Company, priority 1985, dated 1987).

In data set [1] the test system is Staphylococcus epidermidis. The data set is described as follows: In vitro broth dilution minimal inhibitory concentration (standard microdilution method). The data set is classed as cell-based. The settings on record: 24 h, Mueller-Hinton broth, 24-hour, read-out: Microdilution Broth MIC. (In general: In broth dilution the organism is exposed to a series of concentrations in liquid medium.)

The test system of data set [2] is Escherichia coli. Described as above. Format: cell-based. The following applies: for MIC: Escherichia coli, Mueller-Hinton broth, 24-hour, read-out: Microdilution Broth MIC.
Data set [3] has as its system Staphylococcus aureus. Description: In vivo efficacy of orally administered compounds in mouse intraperitoneal infections. The settings on record: for ED50: Staphylococcus aureus, po, 168 h, mouse i.p. Staphylococcus aureus infection, oral, dosed at infection and 4 h post-infection, 7 days, read-out: ED50 (50 percent effective dose).
The subject of data set [4] is Staphylococcus aureus. Description: In vivo efficacy of compounds administered subcutaneously in mouse intraperitoneal infections. The following applies: sc, 168 h; mouse i.p. Staphylococcus aureus infection; subcutaneous; dosed at infection and 4 h post-infection; 7 days; read-out: ED50 (50 percent effective dose).
Data set [5] has as its system Staphylococcus aureus. The data set is described as follows: In vitro test, same procedures as microdilution MIC. Format: cell-based. The following applies: same procedures as Table 9. The source says:
It is believed that the compound of Example 123 would provide control at higher concentrations or under different conditions.

The nature of data set [6]: Water solubility (observation). Format: physicochemical.
Data set [7] deals with Escherichia coli. Description: In vivo efficacy of orally administered compounds in mouse intraperitoneal infections. The settings on record: 168 h; mouse i.p. Escherichia coli infection; oral; dosed at infection and 4 h post-infection; 7 days; read-out: ED50 (50 percent effective dose).
For data set [8], the system named is Escherichia coli. The data set is described as follows: In vivo efficacy of compounds administered subcutaneously in mouse intraperitoneal infections. The settings on record: sc, 168 h; mouse i.p. Escherichia coli infection; subcutaneous; dosed at infection and 4 h post-infection; 7 days; read-out: ED50 (50 percent effective dose).

A word on the MIC: it is the least concentration at which growth counts as inhibited. The ED50 is the dose at which the effect has come halfway, by size or by number of responders.

Converted amounts (≈) assume the structure as drawn.

For the molecule `CCCCCCN(CC1CN(c2ccc(S(C)(=O)=O)cc2)C(=O)O1)C(=O)OC` (racemic) [Example 123, (dl)-N-hexyl-N-[3-[4-(methylsulfonyl)phenyl]-2-oxooxazolidin-5-ylmethyl]carbamic acid, methyl ester], the MIC (in data set [1]; in the data set with Escherichia coli [2]) was greater than 200 µg/mL throughout. Also, the “control of Escherichia coli in vitro” value in the data set on Escherichia coli [2] (same procedures as Table 9, result in words) is on record as “no control”. The ED50 in the data set with Staphylococcus aureus [3] came to 27.6 mg/kg; in the data set with Staphylococcus aureus [4] it was 46.6 mg/kg. The “antibacterial effect in vivo” value in the data set with Staphylococcus aureus [3] (in vivo, see Tables 10 and 11) is given as “found to exhibit an antibacterial effect in vivo”. Further, in the data set with Staphylococcus aureus [5], the “control of Staphylococcus aureus in vitro” value is given as “no control”.

As to `CC(=O)NCC1CN(c2ccc(NS(C)(=O)=O)cc2)C(=O)O1` (single isomer, unassigned) [Example 151, (l)-N-[3-[4-(Methylsulfonylamino)phenyl]-2-oxooxazolidin-5-ylmethyl]acetamide], the MIC in data set [1] is 200 µg/mL (≈ 611 µM); in the data set on Escherichia coli [2] it was greater than 200 µg/mL. The ED50 in the data set with Staphylococcus aureus [3] was 62.9 mg/kg; in the data set on Staphylococcus aureus [4], 9.7 mg/kg. The water solubility entry in data set [6] was “quite water soluble”.

Regarding `CC(=O)c1ccc(N2CC(CNC(=O)C(Cl)Cl)OC2=O)cc1` (stereo not drawn) [Example 172], the minimal inhibitory concentration (MIC) is 4 µg/mL (≈ 11.6 µM) in data set [1] and greater than 128 µg/mL with Escherichia coli [2]. Moreover, the ED50 with Escherichia coli [7] is greater than 120 mg/kg; in the data set with Staphylococcus aureus [3], 10.2 mg/kg; in the data set with Escherichia coli [8] it was greater than 120 mg/kg; in the data set on Staphylococcus aureus [4], 13.6 mg/kg.
